Biological target: human α-thrombin (Homo sapiens (Human), UniProt P00734)
Assay: In vitro assay for determining proteinase inhibition (thrombin Ki)
Type: biochemical
Settings: not given
Description: NMR determinations were made using 400 MHz field strength. Ki data was obtained according to the procedure described in Lewis, et al. Thromb. […] Reactions sensitive to moisture or air were performed under nitrogen or argon using anhydrous solvents and reagents. […] Typically, the analytical LC-MS system used consisted of a Waters ZQ platform with electrospray ionization in positive ion detection mode with an Agilent 1100 series HPLC with autosampler. The column was usually a Water Xterra MS C18, 3.0×50 mm, 5 μm. The flow rate was 1 mL/min, and the injection volume was 10 μL. UV detection was in the range 210-400 nm. […] Preparative HPLC purifications were usually performed using a mass spectrometry directed system. […] The mobile phases consisted of mixtures of acetonitrile (10-100%) in water containing 0.1% TFA. Flow rates were maintained at 50 mL/min, the injection volume was 1800 μL, and the UV detection range was 210-400 nm. Mobile phase gradients were optimized for the individual compounds. Reactions performed using microwave irradiation were normally carried out using an Emrys Optimizer manufactured by Personal Chemistry, or an Initiator manufactured by Biotage. Concentration of solutions was carried out on a rotary evaporator under reduced pressure. Flash chromatography was usually performed using a Biotage Flash Chromatography apparatus (Dyax Corp.) on silica gel ([…], 60 Å pore size) in pre-packed cartridges of the size noted. ^1H NMR spectra were acquired at 500 MHz spectrometers in CDCl3 solutions unless otherwise noted. Chemical shifts were reported in parts per million (ppm). Tetramethylsilane (TMS) was used as internal reference in CD3Cl solutions, and residual CH3OH peak or TMS was used as internal reference in CD3OD solutions. Coupling constants (J) were reported in hertz (Hz). Chiral analytical chromatography was performed on one of Chiralpak AS, Chiralpak AD, Chiralcel OD, Chiralcel IA, or Chiralcel OJ columns (250×4.6 mm) (Daicel Chemical Industries, Ltd.) with noted percentage of either ethanol in hexane (% Et/Hex) or isopropanol in heptane (% IPA/Hep) as isocratic solvent systems. Chiral preparative chromatography was conducted on one of Chiralpak AS, Chiralpak AD, Chiralcel OD, Ciralcel IA, or Chiralcel OJ columns (20×250 mm) (Daicel Chemical Industries, Ltd.) with desired isocratic solvent systems identified on chiral analytical chromatography or by supercritical fluid (SFC) conditions. Celite® (Fluka) diatomite is diatomaceous earth, and can be referred to as “celite”.
Relevant in vitro assays are referenced in Morrissette, et al., Bioorg. […] The assays were carried out at 25° C. in 0.05 M TRIS buffer pH 7.4, 0.15 M NaCl, 0.1% PEG. Trypsin assays also contained 1 mM CaC12.
Concentrations of stock solutions of Z-GPR-afc were determined from measurements of absorbance at 380 nm of the 7-amino-4-trifluoromethyl coumarin produced upon complete hydrolysis of an aliquot of the stock solution by thrombin.
Activity assays were performed by diluting a stock solution of substrate at least tenfold to a final concentration ≦0.1 Km into a solution containing enzyme or enzyme equilibrated with inhibitor. Times required to achieve equilibration between enzyme and inhibitor were determined in control experiments. Initial velocities of product formation in the absence (Vo) or presence of inhibitor (Vi) were measured. Assuming competitive inhibition, and that unity is negligible compared Km/[S], [I]/e, and [I]/e (where [S], [I], and e respectively represent the total concentrations, of substrate, inhibitor and enzyme), the equilibrium constant (Ki) for dissociation of the inhibitor from the enzyme can be obtained from the dependence of Vo/Vi on [I] shown in the following equation.

SMILES | Ki [µM]
NCc1ccc(Cl)cc1CNC(=O)[C@@H]1CCN1C(=O)C1OCc2ccccc21 (stereo partly drawn) [Compound 33-7, (2S)-N-{2-(Aminomethyl)-5-chlorobenzyl}-1-(1,3-dihydroisobenzofuran-1-carbonyl)azetidine-2-carboxamide-2,2,2-trifluoroacetate] | 0.039
NCc1ccc(Cl)cc1CNC(=O)[C@@H]1CCCN1C(=O)[C@H]1CCCO1 [Compound 38-4, (S)—N-{2-(Aminomethyl)-5-chlorobenzyl}-1-{(R)-tetrahydrofuran-2-carbonyl}pyrrolidine-2-carboxamide-2,2,2-trifluoroacetate] | 0.1

Same assay, conditions: 25° C., 0.05 M TRIS buffer pH 7.4, 0.15 M NaCl, 0.1% PEG; competitive inhibition assumed

SMILES | Ki [µM]
NCc1ccc(Cl)cc1CNC(=O)[C@@H]1CCCN1C(=O)C1(O)CCCc2ncccc21 (stereo partly drawn) [Compound 30-6, (2S)-N-{2-(Aminomethyl)-5-chlorobenzyl}-1-(5-hydroxy-5,6,7,8-tetrahydroquinoline-5-carbonyl)pyrrolidine-2-carboxamide bis(2,2,2-trifluoroacetate)] | 0.011
NCc1ccc(Cl)cc1CNC(=O)[C@@H]1CCCN1C(=O)C1(O)CCCc2cnccc21 (stereo partly drawn) [Compound 31-7, (2S)-N-{2-(Aminomethyl)-5-chlorobenzyl}-1-(5-hydroxy-5,6,7,8-tetrahydroisoquinoline-5-carbonyl)pyrrolidine-2-carboxamide bis(2,2,2-trifluoroacetate)] | 0.0048
NCc1ccc(Cl)cc1CNC(=O)[C@@H]1CCCN1C(=O)C1(O)CCCc2cccnc21 (stereo partly drawn) [Compound 32-7, (2S)-N-{2-(aminomethyl)-5-chlorobenzyl}-1-(8-hydroxy-5,6,7,8-tetrahydroquinoline-8-carbonyl)pyrrolidine-2-carboxamide bis(2,2,2-trifluoroacetate)] | 0.0039
O=C(NCc1cc(Cl)ccc1-n1cnnn1)[C@@H]1CCCN1C(=O)C1(O)CCc2cccnc21 (stereo partly drawn) [Compound 36-3, (2S)-N-{5-Chloro-2-(1H-tetrazol-1-yl)benzyl}-1-(7-hydroxy-6,7-dihydro-5H-cyclopenta[b]pyridine-7-carbonyl)pyrrolidine-2-carboxamide] | 0.0025

Continued, values first:

Ki [µM] | SMILES
0.0025 | NCc1ccc(Cl)cc1CNC(=O)[C@@H]1CCN1C(=O)C1NCc2ccccc21 (stereo partly drawn) [Compound 34-7, (2S)-N-{2-(aminomethyl)-5-chlorobenzyl}-1-(isoindoline-1-carbonyl)azetidine-2-carboxamide bis(2,2,2-trifluoroacetate)]
0.11 | NCc1ccc(Cl)cc1CNC(=O)[C@@H]1CCN1C(=O)C1CNc2ccccc21 (stereo partly drawn) [Compound 35-7, (2S)-N-{2-(Aminomethyl)-5-chlorobenzyl}-1-(indoline-3-carbonyl)azetidine-2-carboxamide bis(2,2,2-trifluoroacetate)]
0.26 | NCc1ccc(Cl)cc1CNC(=O)[C@@H]1CCCN1C(=O)c1ncccn1 [Compound 42-3, (S)—N-(2-(Aminomethyl)-5-chlorobenzyl)-1-(pyrimidine-2-carbonyl)pyrrolidine-2-carboxamide bis(2,2,2-trifluoroacetate)]
0.526 | C[C@@]1(C(=O)NCc2cc(Cl)ccc2CN)CCCN1C(=O)[C@H]1CCC(=O)N1 [Compound 43, (S)-N-(2-(aminomethyl)-5-chlorobenzyl)-2-methyl-1-((R)-5-oxopyrrolidine-2-carbonyl)pyrrolidine-2-carboxamide]
0.104 | C[C@@]1(C(=O)NCc2cc(Cl)ccc2CN)CCCN1C(=O)c1ccc(Cl)[nH]1 [Compound 44, (S)-N-(2-(aminomethyl)-5-chlorobenzyl)-1-(5-chloro-1H-pyrrole-2-carbonyl)-2-methylpyrrolidine-2-carboxamide]
0.093 | Cc1ccc(C(=O)N2CCC[C@@]2(C)C(=O)NCc2cc(Cl)ccc2CN)[nH]1 [Compound 45, (S)-N-(2-(aminomethyl)-5-chlorobenzyl)-2-methyl-1-(5-methyl-1H-pyrrole-2-carbonyl)pyrrolidine-2-carboxamide]

From patent US9469608B2, “Thrombin inhibitors” (Merck Sharp & Dohme Corp., priority 2012, dated 2016)
